Reference: patent publication US20250241996A1, “COMBINATORIAL, AND ROTATIONAL COMBINATORIAL THERAPIES” (Starrock Pharma Inc., priority 2022, published 2025)
“And” between values parts separate entries of the source, which are not always exact repeats. Identical values can stand only once. Like-named read-outs stand apart in the source and are kept apart here.

Tests used:
[1] = cited from earlier work
[2] = Side effects and tolerability during the combinatorial weight loss regimen (Example 2)
Description: Subjects were seen once weekly for the first 4 weeks, and then once every two weeks, for six visits, for a total of 10 visits over 16 weeks. Vital signs and side effects were assessed at each visit.
Subjects were administered or self-administered the medications in the protocol by the appropriate route (i.e., subcutaneous injection or oral tablet/capsule) for […]. Subjects initially were administered a combination of: 1) a GLP-1 agonist (sold under trademarks Trulicity®, B-cise®, Ozempic®, and Victoza®), 2) Phentermine, 3) Liothyronine, 4) topiramate (sold under the trademark Topamax® carbonic anhydrase inhibitor), and 5) Sermorelin. The starting dosages are listed below in Table 17. The dosages were adjusted throughout the treatment period based on the subject response (i.e., weight loss), tolerability, volume of distribution, subject weight, and at the discretion of the treating physician. For example, the dosage of the GLP-1 agonists Trulicity® and Ozempic® was adjusted depending on the response to the medications. The dosage of the Bydureon BCcise® GLP-1 agonist was not adjusted since it is only produced in a 2 mg injectable dose. Phentermine was increased depending on subject response, to, for example, one 37.5 mg tablet in the morning and one-half tablet ([…]) at 2 p.m. […] If no progression was noted on the initial medications listed above, then the following medications were added to the protocol: Acarbose, Januvia® dipeptidyl peptidase-4 (DPP-4) inhibitor, Invokana® sodium-glucose co-transporter 2 (SGLT2) inhibitor, and Farxiga® (dapagliflozin) in the dosages listed in Table 17, below. For example, if weight loss progress was slow and a subject was consuming large amounts of carbohydrate-rich foods, the alpha-glucosidase inhibitor, Acarbose, was added to the regimen. […] This was added in addition to medications i-iv and ix, below. The regimen provided a minimum of four medications, and more medications were added and/or the dosages were modified as required in subsequent visits.
In other examples, the regimen began with administration of medications i-iv and ix and other medications were added; additional medications were administered at week 2 or week 7, for example, if the subject was not responding and needed an extra pharmacological ‘push.’
As noted above, the medication dosages were adjusted throughout the treatment period as needed, and as agreed to between the treating physician and the subject. […] For larger subjects (i.e., starting weight over 300 pounds) who were losing less than 6 pounds per week, medication dosages were increased or additional medications were added to the regimen. The hierarchy of decision making included 1) increase the dosage of the medications to the maximum allowable dosage or to the level of tolerability of the medication; and then 2) add a fifth or sixth medication, as needed to increase weight loss.

[3] = cited from earlier work; remark: listed apart in the source
[4] = cited from earlier work; remark: listed apart in the source
[5] = cited from earlier work; remark: listed apart in the source
[6] = after 36 weeks, cited from earlier work

For CC(C)(N)Cc1ccccc1 [Phentermine], the “>%5 (percent of subjects who lost greater than 5%)” value ([1]; Duration 12 weeks) is listed as 95%, the “>%10 (percent of subjects who lost greater than 10%)” value ([1]; Duration 12 weeks) is listed as 62.5% and the Weight loss ([1]; Duration 12 weeks) is listed as 8% and 7%. The “participants with 5% and more weight loss” value ([1]; Duration 12 weeks) was 95%, the “participants with 10% and more weight loss” value ([1]; Duration 12 weeks) was 62.5% and the Weight loss ([1]; Duration 12 weeks, listed as phentermine) was 8% and 7%. The Weight loss ([1]; Duration 20 weeks) was 9%, the Weight loss ([1]; Duration 28 weeks) was 6% and the “Side effect(s)” value ([2]; subject 1, dosages of Table 18) was “Dry mouth”. For the same molecule, the “Side effect(s)” value ([2]; subject 2, dosages of Table 20) was “Dry mouth”, the “Side effect(s)” value ([2]; subject 3, dosages of Table 22) was “None and Dry mouth” and the “Side effect(s)” value ([2]; subject 4, dosages of Table 24) was “None”. For the same molecule, the “Side effect(s)” value ([2]; subject 5, dosages of Table 26) was “None”.

For CCCCCCCCCCC[C@@H](C[C@@H]1OC(=O)[C@H]1CCCCCC)OC(=O)[C@H](CC(C)C)NC=O [Orlistat], the placebo-normalized weight loss ([3]; human, in vivo) is listed as ~2.5%, the “>%5 (percent of subjects who lost greater than 5%)” value ([1]; Duration 56 weeks) is listed as 48% and the “>%10 (percent of subjects who lost greater than 10%)” value ([1]; Duration 56 weeks) is listed as 17.9%. The Weight loss ([1]; Duration 56 weeks) was 6.2% and 4% and 8.5%, the “participants with 5% and more weight loss” value ([1]; Duration 56 weeks) was 48% and the “participants with 10% and more weight loss” value ([1]; Duration 56 weeks) was 17.9%.

In the case of C[C@H]1[C@H](c2ccccc2)OCCN1C [Phendimetrazine], the “Side effect(s)” value ([2]; subject 5, dosages of Table 26) is reported as “None”.

In the case of O=[N+]([O-])c1ccc(O)c([N+](=O)[O-])c1 [DNP, 2,4-dinitrophenol], the toxicity ([3]; tested clinically) is listed as “limited utility owing to toxicity”.

With CC[C@H](C)[C@H](NC(=O)[C@H](C)NC(=O)[C@H](CC(=O)O)NC(=O)[C@H](C)NC(=O)[C@@H](N)Cc1ccc(O)cc1)C(=O)N[C@@H](Cc1ccccc1)C(=O)N[C@H](C(=O)N[C@@H](CC(N)=O)C(=O)N[C@@H](CO)C(=O)N[C@@H](Cc1ccc(O)cc1)C(=O)N[C@@H](CCCNC(=N)N)C(=O)N[C@@H](CCCCN)C(=O)N[C@H](C(=O)N[C@@H](CC(C)C)C(=O)NCC(=O)N[C@@H](CCC(N)=O)C(=O)N[C@@H](CC(C)C)C(=O)N[C@@H](CO)C(=O)N[C@@H](C)C(=O)N[C@@H](CCCNC(=N)N)C(=O)N[C@@H](CCCCN)C(=O)N[C@@H](CC(C)C)C(=O)N[C@@H](CC(C)C)C(=O)N[C@@H](CCC(N)=O)C(=O)N[C@@H](CC(=O)O)C(=O)N[C@H](C(=O)N[C@@H](CCSC)C(=O)N[C@@H](CO)C(=O)N[C@@H](CCCNC(=N)N)C(N)=O)[C@@H](C)CC)C(C)C)[C@@H](C)O [sermorelin] the “Side effect(s)” value ([2]; in vivo) was “None”.

With CC[C@H](C)[C@H](NC(=O)[C@H](Cc1ccccc1)NC(=O)[C@H](CCC(=O)O)NC(=O)[C@H](CCCCNC(=O)COCCOCCNC(=O)COCCOCCNC(=O)CC[C@H](NC(=O)CCCCCCCCCCCCCCCCC(=O)O)C(=O)O)NC(=O)[C@H](C)NC(=O)[C@H](C)NC(=O)[C@H](CCC(N)=O)NC(=O)CNC(=O)[C@H](CCC(=O)O)NC(=O)[C@H](CC(C)C)NC(=O)[C@H](Cc1ccc(O)cc1)NC(=O)[C@H](CO)NC(=O)[C@H](CO)NC(=O)[C@@H](NC(=O)[C@H](CC(=O)O)NC(=O)[C@H](CO)NC(=O)[C@@H](NC(=O)[C@H](Cc1ccccc1)NC(=O)[C@@H](NC(=O)CNC(=O)[C@H](CCC(=O)O)NC(=O)C(C)(C)NC(=O)[C@@H](N)Cc1cnc[nH]1)[C@@H](C)O)[C@@H](C)O)C(C)C)C(=O)N[C@@H](C)C(=O)N[C@@H](Cc1c[nH]c2ccccc12)C(=O)N[C@@H](CC(C)C)C(=O)N[C@H](C(=O)N[C@@H](CCCNC(=N)N)C(=O)NCC(=O)N[C@@H](CCCNC(=N)N)C(=O)NCC(=O)O)C(C)C [semaglutide] the “Side effect(s)” value ([2]; in vivo) was “constipation”.

With CCN(CC)C(C)C(=O)c1ccccc1 (centres unmarked) [Diethylproprion] the “Side effect(s)” value ([2]; subject 2, dosages of Table 20) was “None”.

In the case of C[C@H]1CNCCc2ccc(Cl)cc21 [Locasarin], the Weight loss ([1]; Duration 56 weeks) is given as 5.8%.

For “leptin: 167 amino acid hormone (SEQ ID NO:3)”, the “lowering of body weight by supplementation” value ([3]; obese individuals) is listed as “has not been shown to be effective to lower body weight in obese individuals”.

For Fc1ccccc1Nc1nc2nonc2nc1Nc1ccccc1F [BAM15, (2-fluorophenyl){6-[(2-fluorophenyl)amino](1,2,5-oxadiazolo [3,4e]pyrazin-5-yl)}amine], the “diet-induced obesity and insulin resistance” value ([4]; orally administered, mice) is listed as “reverses diet-induced obesity and insulin resistance in mice”.

In the case of CC1(C)O[C@@H]2[C@@H](CO[C@@]3(COS(N)(=O)=O)OC(C)(C)O[C@@H]23)O1 [Topiramate], the “tolerability within the regimen” value ([2]; in vivo) is reported as “the least tolerated, and was discontinued in some cases”.

With C[C@H]1O[C@H](O[C@H]2[C@H](O)[C@@H](O)[C@@H](O[C@H]3[C@H](O)[C@@H](O)C(O)O[C@@H]3CO)O[C@@H]2CO)[C@H](O)[C@@H](O)[C@@H]1N[C@H]1C=C(CO)[C@@H](O)[C@H](O)[C@H]1O (some centres unmarked) [Acarbose] the “Side effect(s)” value ([2]; subject 4, dosages of Table 24) was “Mild”.

In the case of “Novo Nordisk Wegovy ™ semaglutide weight loss medication”, the “12 weeks % weight change” value ([5]; Wegovy Study 1, baseline mean body weight 105.4 kg) is listed as −6%, the “36 weeks % weight change” value ([5]; Wegovy Study 1) is listed as −12% and the “12 weeks % weight change” value ([5]; Wegovy Study 2, baseline mean body weight 99.9 kg) is listed as −4.5%. The “36 weeks % weight change” value ([5]; Wegovy Study 2) was −9%, the “12 weeks % weight change” value ([5]; Wegovy Study 3, baseline mean body weight 106.9 kg) was −7% and the “36 weeks % weight change” value ([5]; Wegovy Study 3) was −13%. For the same molecule, the “12 weeks % weight change” value ([5]; Wegovy Study 4, baseline mean body weight 107.2 kg) was −5.5% and the “36 weeks % weight change” value ([5]; Wegovy Study 4) was −12%.

In the case of Cc1c(C(=O)NN2CCCCC2)nn(-c2ccc(Cl)cc2Cl)c1-c1ccc(Cl)cc1 [Rimonabant], the adverse psychiatric effects ([3]; human, in vivo) is listed as “discontinued in 2009 due to serious adverse psychiatric effects” and the placebo-subtracted weight loss ([3]; human, in vivo) is listed as 2.6 to 6.3 kg.

In the case of O=C1CC[C@@]2(O)[C@H]3Cc4ccc(O)c5c4[C@@]2(CCN3CC2CC2)[C@H]1O5 [Naltrexone], the “weight loss in monotherapy” value ([3]; human, in vivo) is listed as “does not cause weight loss in monotherapy”.

In the case of CC(NC(C)(C)C)C(=O)c1cccc(Cl)c1 (centres unmarked) [Bupropion], the “Side effect(s)” value ([2]; in vivo) is reported as “None”.

For CCOC[C@@H]1[C@@H](c2ccc(Cl)c(Cl)c2)C[C@@H]2CC[C@H]1N2C [Tesofensine], the “decrease of body weight” value ([3]; phase II study, dose-dependent) is listed as 4.4-10.4%.

For dulaglutide, the average weight lost ([6]; 1.5 mg once weekly with ≥1500 mg/day metformin) is given as 6.6 pounds, the average weight lost ([6]; 3.0 mg once weekly with ≥1500 mg/day metformin) is given as 8.4 pounds and the average weight lost ([6]; 4.5 mg once weekly with ≥1500 mg/day metformin) is given as 1.1 pounds. The “Side effect(s)” value ([2]; in vivo) was “constipation”.

B1: recombinant GDF15: Macrophage inhibitory cytokine 1 (SEQ ID NO:33) (protein, listed as Homo sapiens)
chain: MPGQELRTVNGSQMLLVLLVLSWLPHGGALSLAEASRASFPGPSELHSEDSRFRELRKRYEDLLTRLRANQSWEDSNTDLVPAPAVRILTPEVRLGSGGHLHLRISRAALPEGLPEASRLHRALFRLSPTASRSWDVTRPLRRQLSLARPQAPALHLRLSPPPSQSDQLLAESSSARPQLELHLRPQAARGRRRARARNGDHCPLGPGRCCRLHTVRASLEDLGWADWVLSPREVQVTMCIGACPSQFRAANMHAQIKTSLHRLKPDTVPAPCCVPASYNPMVLIQKTDTGVSLQTYDDLLAKDCHCI
modifications: Macrophage inhibitory cytokine 1 (MIC1 or GDF15)
For B1, the body weight ([4]; exogenous administration, diet-induced obese mice and non-human primates) is given as “decreases body weight in diet-induced obese mice and non-human primates”.
